What was measured:
Assay type in all cases: cell-based
[1] = biological target: T1, human TLR7 (Homo sapiens, UniProt Q9NYK1); experiment: TLR7 inhibition reporter assay (HEK-Blue cells, SEAP reporter, gardiquimod stimulation); details: HEK-Blue cells overexpressing human TLR7, SEAP reporter, gardiquimod 7.5 μM
T1 construct: host or cells: HEK-Blue cells
T1 sequence (Q9NYK1 27-1049): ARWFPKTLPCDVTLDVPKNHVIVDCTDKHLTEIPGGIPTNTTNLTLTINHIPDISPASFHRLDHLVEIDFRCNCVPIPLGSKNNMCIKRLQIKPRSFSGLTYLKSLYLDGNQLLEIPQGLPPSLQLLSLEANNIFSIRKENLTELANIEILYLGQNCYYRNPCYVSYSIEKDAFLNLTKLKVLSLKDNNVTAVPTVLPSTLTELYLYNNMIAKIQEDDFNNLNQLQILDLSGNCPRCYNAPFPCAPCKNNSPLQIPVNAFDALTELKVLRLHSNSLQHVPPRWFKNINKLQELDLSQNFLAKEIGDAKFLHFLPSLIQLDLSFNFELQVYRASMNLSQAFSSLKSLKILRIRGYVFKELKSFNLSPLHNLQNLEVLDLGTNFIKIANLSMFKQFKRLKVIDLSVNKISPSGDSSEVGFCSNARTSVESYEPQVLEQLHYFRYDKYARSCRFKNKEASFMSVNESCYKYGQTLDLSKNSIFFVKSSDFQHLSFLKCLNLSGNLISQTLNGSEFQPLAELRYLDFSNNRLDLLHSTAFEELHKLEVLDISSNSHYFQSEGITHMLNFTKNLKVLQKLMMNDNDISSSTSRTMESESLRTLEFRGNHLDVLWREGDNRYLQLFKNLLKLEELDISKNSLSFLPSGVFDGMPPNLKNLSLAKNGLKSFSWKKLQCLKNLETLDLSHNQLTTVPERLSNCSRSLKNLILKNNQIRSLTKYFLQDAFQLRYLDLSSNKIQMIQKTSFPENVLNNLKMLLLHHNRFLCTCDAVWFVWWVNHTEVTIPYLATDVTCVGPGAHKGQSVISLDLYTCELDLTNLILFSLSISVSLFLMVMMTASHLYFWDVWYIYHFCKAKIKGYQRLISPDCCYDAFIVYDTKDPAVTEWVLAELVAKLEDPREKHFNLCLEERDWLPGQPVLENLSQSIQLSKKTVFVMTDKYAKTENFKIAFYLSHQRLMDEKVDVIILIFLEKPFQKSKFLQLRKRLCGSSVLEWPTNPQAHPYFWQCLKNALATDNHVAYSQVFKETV
How it was run: (§1)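 Dose range 0.05 nM–50 μM; 30 min preincubation, RT. Agonists: TLR7 gardiquimod 7.5 μM, TLR8 R848 15.9 μM, TLR9 ODN2006 5 nM. 22 h, 37 °C, 5% CO2. SEAP (IFN-β minimal promoter with NF-κB/AP-1 sites) via colorimetric detection medium; % inhibition vs agonist+DMSO and reference-inhibitor wells.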

[2] = biological target: T2, human TLR8 (Homo sapiens, UniProt Q9NR97); experiment: TLR8 inhibition reporter assay (HEK-Blue cells, SEAP reporter, R848 stimulation); details: HEK-Blue cells overexpressing human TLR8, SEAP reporter, R848 15.9 μM
T2 construct: host or cells: HEK-Blue cells
T2 sequence (Q9NR97 27-1041): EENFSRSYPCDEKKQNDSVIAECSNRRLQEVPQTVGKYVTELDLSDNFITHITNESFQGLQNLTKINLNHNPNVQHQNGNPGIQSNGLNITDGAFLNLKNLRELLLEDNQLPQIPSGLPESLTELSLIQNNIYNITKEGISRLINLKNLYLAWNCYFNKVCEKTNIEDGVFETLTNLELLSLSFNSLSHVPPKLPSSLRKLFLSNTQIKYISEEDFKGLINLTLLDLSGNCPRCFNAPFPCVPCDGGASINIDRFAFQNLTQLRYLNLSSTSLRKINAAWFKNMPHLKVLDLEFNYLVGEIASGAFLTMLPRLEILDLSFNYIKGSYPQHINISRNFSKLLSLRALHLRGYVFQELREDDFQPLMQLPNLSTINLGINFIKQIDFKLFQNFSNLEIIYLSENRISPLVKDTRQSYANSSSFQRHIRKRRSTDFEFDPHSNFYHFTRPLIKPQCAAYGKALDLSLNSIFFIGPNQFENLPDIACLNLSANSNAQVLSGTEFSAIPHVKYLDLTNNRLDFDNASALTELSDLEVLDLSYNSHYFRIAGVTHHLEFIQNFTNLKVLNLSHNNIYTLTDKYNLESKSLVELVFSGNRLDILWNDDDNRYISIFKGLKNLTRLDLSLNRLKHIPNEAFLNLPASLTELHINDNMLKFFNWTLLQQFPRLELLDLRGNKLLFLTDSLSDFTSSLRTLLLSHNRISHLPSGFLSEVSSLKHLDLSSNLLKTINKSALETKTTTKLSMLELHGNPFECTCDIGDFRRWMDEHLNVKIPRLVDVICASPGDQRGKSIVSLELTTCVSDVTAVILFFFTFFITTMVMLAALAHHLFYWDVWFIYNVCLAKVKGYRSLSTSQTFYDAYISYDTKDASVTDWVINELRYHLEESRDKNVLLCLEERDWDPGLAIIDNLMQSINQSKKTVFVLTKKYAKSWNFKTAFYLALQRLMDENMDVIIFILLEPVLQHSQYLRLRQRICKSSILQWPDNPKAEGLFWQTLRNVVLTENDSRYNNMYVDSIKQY
How it was run: as §1

[3] = biological target: T3, human TLR9 (Homo sapiens, UniProt Q9NR96); experiment: TLR9 inhibition reporter assay (HEK-Blue cells, SEAP reporter, ODN2006 stimulation); details: HEK-Blue cells overexpressing human TLR9, SEAP reporter, ODN2006 5 nM
T3 construct: host or cells: HEK-Blue cells
T3 sequence (Q9NR96 26-1032): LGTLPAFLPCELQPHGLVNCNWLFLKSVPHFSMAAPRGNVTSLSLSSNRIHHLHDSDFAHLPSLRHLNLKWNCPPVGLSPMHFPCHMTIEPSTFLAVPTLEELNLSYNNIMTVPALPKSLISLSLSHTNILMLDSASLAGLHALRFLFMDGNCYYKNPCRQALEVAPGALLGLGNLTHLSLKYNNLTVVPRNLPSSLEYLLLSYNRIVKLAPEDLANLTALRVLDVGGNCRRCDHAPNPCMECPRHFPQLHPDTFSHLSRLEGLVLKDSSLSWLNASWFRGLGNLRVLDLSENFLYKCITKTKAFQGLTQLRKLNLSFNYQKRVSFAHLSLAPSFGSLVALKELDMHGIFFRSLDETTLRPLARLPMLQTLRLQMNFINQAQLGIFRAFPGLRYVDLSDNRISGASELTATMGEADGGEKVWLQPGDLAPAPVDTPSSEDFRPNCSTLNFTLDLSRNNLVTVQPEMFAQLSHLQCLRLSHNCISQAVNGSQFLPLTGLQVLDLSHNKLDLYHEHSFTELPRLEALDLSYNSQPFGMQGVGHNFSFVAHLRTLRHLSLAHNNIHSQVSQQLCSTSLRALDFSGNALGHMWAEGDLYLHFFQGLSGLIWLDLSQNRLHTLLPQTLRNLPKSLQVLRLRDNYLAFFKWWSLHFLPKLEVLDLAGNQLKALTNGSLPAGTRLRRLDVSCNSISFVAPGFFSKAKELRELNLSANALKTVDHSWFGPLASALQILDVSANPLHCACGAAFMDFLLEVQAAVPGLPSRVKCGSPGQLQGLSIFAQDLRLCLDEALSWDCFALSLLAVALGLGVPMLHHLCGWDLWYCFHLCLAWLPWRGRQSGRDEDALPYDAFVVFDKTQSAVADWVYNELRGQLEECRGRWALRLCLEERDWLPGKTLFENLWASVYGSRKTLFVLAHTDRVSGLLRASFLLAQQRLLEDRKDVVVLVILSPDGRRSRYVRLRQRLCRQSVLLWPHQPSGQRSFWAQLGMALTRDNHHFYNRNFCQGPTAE
How it was run: as §1

Row | Compound | IC50 [1] | IC50 [2] | IC50 [3]
1 | Cc1cc(-c2[nH]c3ccc(C4CCC(N(C)CC(=O)N(C)C)CC4)cc3c2C(C)C)cn2ncnc12 (single isomer, unassigned) [Example 177, 2-((4-(3-isopropyl-2-(8-methyl-[1,2,4]triazolo[1,5-a]pyridin-6-yl)-1H-indol-5-yl)cyclohexyl)(methyl)amino)-N,N-dimethylacetamide] | 5 nM | 24 nM | 7020 nM
2 | CNC(=O)CNC1CCC(c2ccc3[nH]c(-c4cc(C)nc(C)c4)c(C(C)C)c3c2)CC1 (single isomer, unassigned) [Example 180, 2-((4-(2-(2,6-dimethylpyridin-4-yl)-3-isopropyl-1H-indol-5-yl)cyclohexyl)amino)-N-methylacetamide] | 2 nM | 4.5 nM | 277 nM
3 | COc1cc(-c2[nH]c3ccc(C4CCC(N(C)C(C)C)C4)cc3c2C(C)C)cn2ncnc12 (single isomer, unassigned) [Example 275, N-isopropyl-3-(3-isopropyl-2-(8-methoxy-[1,2,4]triazolo[1,5-a]pyridin-6-yl)-1H-indol-5-yl)-N-methylcyclopentan-1-amine] | 0.86 nM | 0.23 nM | 1270 nM
4 | COc1cc(-c2[nH]c3ccc(C4CCC(N(C)C(C)C)C4)cc3c2C(C)C)cn2ncnc12 (single isomer, unassigned) [Example 276, N-isopropyl-3-(3-isopropyl-2-(8-methoxy-[1,2,4]triazolo[1,5-a]pyridin-6-yl)-1H-indol-5-yl)-N-methylcyclopentan-1-amine] | 0.64 nM | 0.9 nM | 468 nM
5 | COc1cc(-c2[nH]c3ccc(C4CCC(N(C)C(C)C)C4)cc3c2C(C)C)cn2ncnc12 (single isomer, unassigned) [Example 277, N-isopropyl-3-(3-isopropyl-2-(8-methoxy-[1,2,4]triazolo[1,5-a]pyridin-6-yl)-1H-indol-5-yl)-N-methylcyclopentan-1-amine] | 2 nM | 4.4 nM | 801 nM
6 | Cc1cc(-c2[nH]c3ccc(C4CN(CC(=O)N(C)C)CCO4)cc3c2C(C)C)cn2ncnc12 (single isomer, unassigned) [Example 308] | 8 nM | 18 nM | > 50000 nM
7 | Cc1cc(-c2[nH]c3ccc(C4CN(CC(=O)N(C)C)CCO4)cc3c2C(C)C)cn2ncnc12 (single isomer, unassigned) [Example 316] | 9 nM | 55 nM | > 50000 nM

More lines, in order of falling IC50 [1], values ahead:

Row | IC50 [1] | IC50 [2] | IC50 [3] | Compound
8 | 6 nM | 4.6 nM | 6990 nM | Cc1cc(-c2[nH]c3ccc(C4CN(CC(C)(C)O)CCO4)cc3c2C(C)C)cn2ncnc12 (single isomer, unassigned) [Example 356]
9 | 2 nM | 3.5 nM | 767 nM | CNC(=O)CNC1CCC(c2ccc3[nH]c(-c4cc(C)nc(C)c4)c(C(C)C)c3c2)CC1 (single isomer, unassigned) [Example 179, 2-((4-(2-(2,6-dimethylpyridin-4-yl)-3-isopropyl-1H-indol-5-yl)cyclohexyl)amino)-N-methylacetamide]
10 | 2 nM | 7.9 nM | 4630 nM | COc1cc(-c2[nH]c3ccc(C4CCCNC4)cc3c2C(C)C)cn2ncnc12 (single isomer, unassigned) [Example 183]
11 | 2 nM | 3 nM | 1370 nM | COc1cc(-c2[nH]c3ccc(C4CCCN(C(C)C)C4)cc3c2C(C)C)cn2ncnc12 (single isomer, unassigned) [Example 239]
12 | 2 nM | 1.6 nM | 1160 nM | COCCN1CCCC(c2ccc3[nH]c(-c4cc(OC)c5ncnn5c4)c(C(C)C)c3c2)C1 (single isomer, unassigned) [Example 252]
13 | 2 nM | 1.5 nM | 1410 nM | COc1cc(-c2[nH]c3ccc(C4CCC(N(C)C(C)C)C4)cc3c2C(C)C)cn2ncnc12 (single isomer, unassigned) [Example 278, N-isopropyl-3-(3-isopropyl-2-(8-methoxy-[1,2,4]triazolo[1,5-a]pyridin-6-yl)-1H-indol-5-yl)-N-methylcyclopentan-1-amine]
14 | 1 nM | 5.3 nM | 2370 nM | COc1cc(-c2[nH]c3ccc(C4CCCNC4)cc3c2C(C)C)cn2ncnc12 (single isomer, unassigned) [Example 182]
15 | 0.23 nM | 2.4 nM | 1780 nM | Cc1cc(-c2[nH]c3ccc(C4CCC(N(C)CC(=O)N(C)C)CC4)cc3c2C(C)C)cn2ncnc12 (single isomer, unassigned) [Example 178, 2-((4-(3-isopropyl-2-(8-methyl-[1,2,4]triazolo[1,5-a]pyridin-6-yl)-1H-indol-5-yl)cyclohexyl)(methyl)amino)-N,N-dimethylacetamide]

Source: patent publication US11878975B2, “Substituted indole compounds useful as TLR inhibitors” (BRISTOL-MYERS SQUIBB COMPANY, priority 2017, dated 2024)
